Measurements reported in patent publication US11612606B2, “8-aminoisoquinoline compounds and uses thereof” (priority 2018, dated 2023).
Structures can show the parent of a compound that is named as a salt. Where two headings read alike, the source gives them in different places.

Target: HPK full length, T165E S171E (Homo sapiens (Human), UniProt Q92918, S171E/T165E)
Assay: HPK1-FL HTRF enzymatic assay ("HTRF")
Format: biochemical
Details: ATP 1 mM
Method in brief: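 Full-length HPK1 (T165E/S171E) was preincubated 30 min with compound, then reacted 60 min with biotin-SLP-76 and 1 mM ATP. Phospho-SLP-76 was detected by HTRF (Eu-anti-pSLP76 antibody, SA-XL665) after a further 60 min.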

Sequence of HPK full length, T165E S171E (Q92918 whole entry T165E/S171E, looked up): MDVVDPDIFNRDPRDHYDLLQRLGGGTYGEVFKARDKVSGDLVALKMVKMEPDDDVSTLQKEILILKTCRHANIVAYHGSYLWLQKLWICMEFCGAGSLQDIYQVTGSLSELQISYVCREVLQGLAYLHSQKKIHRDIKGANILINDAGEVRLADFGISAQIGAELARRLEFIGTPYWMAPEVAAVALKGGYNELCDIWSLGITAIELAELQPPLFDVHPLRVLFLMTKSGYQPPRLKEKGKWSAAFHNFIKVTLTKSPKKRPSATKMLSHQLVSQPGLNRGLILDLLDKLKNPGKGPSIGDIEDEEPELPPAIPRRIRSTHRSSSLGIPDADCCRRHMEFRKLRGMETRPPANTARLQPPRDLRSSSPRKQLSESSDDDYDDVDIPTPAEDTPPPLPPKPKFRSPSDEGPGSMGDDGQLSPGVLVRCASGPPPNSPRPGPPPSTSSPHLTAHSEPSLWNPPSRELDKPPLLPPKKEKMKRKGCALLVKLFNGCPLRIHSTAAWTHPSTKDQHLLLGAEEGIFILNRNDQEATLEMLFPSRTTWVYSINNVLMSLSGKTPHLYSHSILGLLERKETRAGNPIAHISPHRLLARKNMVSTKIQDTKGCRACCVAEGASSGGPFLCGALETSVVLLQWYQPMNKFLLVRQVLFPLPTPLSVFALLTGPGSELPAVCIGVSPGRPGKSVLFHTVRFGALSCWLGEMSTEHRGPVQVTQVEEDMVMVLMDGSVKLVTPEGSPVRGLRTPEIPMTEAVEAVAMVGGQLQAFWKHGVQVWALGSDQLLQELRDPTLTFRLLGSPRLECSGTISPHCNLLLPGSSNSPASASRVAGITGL

| SMILES | Ki (read-out: HPK1 Ki) [nM] | Ki (HPK1 Ki) [nM] |
| --- | --- | --- |
| Cc1c(-c2cc3cc(NC(=O)O[C@H]4C[C@@H](C(=O)N(C)C)C4)ncc3c(N)c2F)cnc2c1NCCO2 [Compound 519a, (1s,3s)-3-(Dimethylcarbamoyl)cyclobutyl (8-amino-7-fluoro-6-(8-methyl-2,3-dihydro-1H-pyrido[2,3-b][1,4]oxazin-7-yl)isoquinolin-3-yl)carbamate] | < 0.013 |  |
| CNC(=O)[C@H]1C[C@@H](OC(=O)Nc2cc3cc(-c4cnc5c(c4C)NCCO5)c(F)c(N)c3cn2)C1 [Compound 520a, (1s,3s)-3-(Methylcarbamoyl)cyclobutyl (8-amino-7-fluoro-6-(8-methyl-2,3-dihydro-1H-pyrido[2,3-b][1,4]oxazin-7-yl)isoquinolin-3-yl)carbamate hydrochloride] | < 0.013 |  |
| Cc1c(-c2cc3cc(NC(=O)OC4CN(CCF)C4)ncc3c(N)c2F)cnc2c1NCCO2 [Compound 521, 1-(2-Fluoroethyl)azetidin-3-yl (8-amino-7-fluoro-6-(8-methyl-2,3-dihydro-1H-pyrido[2,3-b][1,4]oxazin-7-yl)isoquinolin-3-yl)carbamate] | 0.11 |  |
| Cc1c(-c2cc3cc(NC(=O)O[C@H]4[C@@H]5CN(S(C)(=O)=O)C[C@@H]54)ncc3c(N)c2F)cnc2c1NCCO2 [Compound 522a, (1R,5S,6s)-3-(Methylsulfonyl)-3-azabicyclo[3.1.0]hexan-6-yl (8-amino-7-fluoro-6-(8-methyl-2,3-dihydro-1H-pyrido[2,3-b][1,4]oxazin-7-yl)isoquinolin-3-yl)carbamate] | < 0.013 |  |
| Cc1c(-c2cc3cc(NC(=O)OC4CN(S(=O)(=O)C5CC5)C4)ncc3c(N)c2F)cnc2c1NCCO2 [Compound 524, (1-Cyclopropylsulfonylazetidin-3-yl)-N-[8-amino-7-fluoro-6-(8-methyl-2,3-dihydro-1H-pyrido[2,3-b][1,4]oxazin-7-yl)-3-isoquinolyl]-carbamate hydrochloride] | 0.02 |  |
| Cc1c(-c2cc3cc(NC(=O)O[C@H]4C[C@@H](N5CC(F)C5)C4)ncc3c(N)c2F)cnc2c1NCCO2 [Compound 525a, (1s,3s)-3-(3-Fluoroazetidin-1-yl)cyclobutyl (8-amino-7-fluoro-6-(8-methyl-2,3-dihydro-1H-pyrido[2,3-b][1,4]oxazin-7-yl)isoquinolin-3-yl)carbamate] | < 0.013 |  |
| Cc1c(-c2cc3cc(NC(=O)O[C@@H]4C[C@](C)(O)[C@@H]4C)ncc3c(N)c2F)cnc2c1NCCO2 [Compound 526a, (1R,2R,3S)-3-Hydroxy-2,3-dimethylcyclobutyl (8-amino-7-fluoro-6-(8-methyl-2,3-dihydro-1H-pyrido[2,3-b][1,4]oxazin-7-yl)isoquinolin-3-yl)carbamate] | 0.015 |  |
| Cc1c(-c2cc3cc(NC(=O)O[C@@H]4C[C@@](C)(O)[C@H]4C)ncc3c(N)c2F)cnc2c1NCCO2 [Compound 526d, (1R,2S,3R)-3-Hydroxy-2,3-dimethylcyclobutyl (8-amino-7-fluoro-6-(8-methyl-2,3-dihydro-1H-pyrido[2,3-b][1,4]oxazin-7-yl)isoquinolin-3-yl)carbamate] | 0.018 |  |
| CNc1cncc(-c2cc3cc(NC(=O)O[C@H]4C[C@](C)(O)C4)ncc3c(N)c2F)c1C [Compound 527a, (1r,3r)-3-Hydroxy-3-methylcyclobutyl (8-amino-7-fluoro-6-(4-methyl-5-(methylamino)pyridin-3-yl)isoquinolin-3-yl)carbamate] | 0.538 |  |
| CNc1cncc(-c2cc3cc(NC(=O)O[C@H]4C[C@@](C)(O)C4)ncc3c(N)c2F)c1C [Compound 527b, (1s,3s)-3-Hydroxy-3-methylcyclobutyl (8-amino-7-fluoro-6-(4-methyl-5-(methylamino)pyridin-3-yl)isoquinolin-3-yl)carbamate] | 0.216 |  |
| CO[C@]1(C)C[C@H](OC(=O)Nc2cc3cc(-c4cnc5c(c4C)NCCO5)c(F)c(N)c3cn2)C1 [Compound 528a, (1s,3s)-3-Methoxy-3-methyl cyclobutyl (8-amino-7-fluoro-6-(8-methyl-2,3-dihydro-1H-pyrido[2,3-b][1,4]oxazin-7-yl)isoquinolin-3-yl)carbamate] | < 0.013 |  |
| CC(=O)O[C@]1(C)C[C@H](OC(=O)Nc2cc3cc(-c4cnc5c(c4C)NCCO5)c(F)c(N)c3cn2)C1 [Compound 529b, (1s,3s)-3-(((8-Amino-7-fluoro-6-(8-methyl-2,3-dihydro-1H-pyrido[2,3-b][1,4]oxazin-7-yl)isoquinolin-3-yl)carbamoyl)oxy)-1-methylcyclobutyl acetate] | 0.019 |  |
| Cc1c(-c2cc3cc(NC(=O)OC4CC5(C4)CN(CC(F)F)C5)ncc3c(N)c2F)cnc2c1NCCC2 [Compound 532, 2-(2,2-Difluoroethyl)-2-azaspiro[3.3]heptan-6-yl (8-amino-7-fluoro-6-(4-methyl-5,6,7,8-tetrahydro-1,5-naphthyridin-3-yl)isoquinolin-3-yl)carbamate] | 0.014 |  |
| Cc1c(N)cncc1-c1cc2cc(NC(=O)O[C@H]3C[C@@H](C#N)C3)ncc2c(N)c1F [Compound 534a, (1s,3s)-3-Cyanocyclobutyl (8-amino-6-(5-amino-4-methylpyridin-3-yl)-7-fluoroisoquinolin-3-yl)carbamate] | 0.14 |  |
| Cc1c(-c2cc3cc(NC(=O)O[C@@H]4CC[C@H]4C#N)ncc3c(N)c2F)cnc2c1NCCO2 [Compound 535b, (1R,2S)-2-Cyanocyclobutyl (8-amino-7-fluoro-6-(8-methyl-2,3-dihydro-1H-pyrido[2,3-b][1,4]oxazin-7-yl)isoquinolin-3-yl)carbamate] | 0.029 |  |
| Cc1c(-c2cc3cc(NC(=O)O[C@H]4C[C@@H](CC#N)C4)ncc3c(N)c2F)cnc2c1NCCO2 [Compound 536a, (1r,3s)-3-(Cyanomethyl)cyclobutyl (8-amino-7-fluoro-6-(8-methyl-2,3-dihydro-1H-pyrido[2,3-b][1,4]oxazin-7-yl)isoquinolin-3-yl)carbamate] | < 0.013 |  |
| Cc1c(-c2cc3cc(NC(=O)O[C@H]4C[C@@](C)(C#N)C4)ncc3c(N)c2F)cnc2c1NCCO2 [Compound 537a, (1s,3s)-3-Cyano-3-methylcyclobutyl (8-amino-7-fluoro-6-(8-methyl-2,3-dihydro-1H-pyrido[2,3-b][1,4]oxazin-7-yl)isoquinolin-3-yl)carbamate] | 0.015 |  |
| Cc1c(-c2cc3cc(NC(=O)O[C@H]4C[C@](C)(C#N)C4)ncc3c(N)c2F)cnc2c1NCCO2 [Compound 537b, (1r,3r)-3-Cyano-3-methylcyclobutyl (8-amino-7-fluoro-6-(8-methyl-2,3-dihydro-1H-pyrido[2,3-b][1,4]oxazin-7-yl)isoquinolin-3-yl)carbamate] | < 0.013 |  |
| CN[C@H]1C[C@H](OC(=O)Nc2cc3cc(-c4cnc5c(c4C)NCCO5)c(F)c(N)c3cn2)C1 [Compound 539a, (1r,3r)-3-(Methylamino)cyclobutyl (8-amino-7-fluoro-6-(8-methyl-2,3-dihydro-1H-pyrido[2,3-b][1,4]oxazin-7-yl)isoquinolin-3-yl)carbamate] | < 0.013 |  |
| Cc1c(-c2cc3cc(NC(=O)OC4CN(C5CC5)C4)ncc3c(N)c2F)cnc2c1NCCO2 [Compound 540, 1-Cyclopropylazetidin-3-yl (8-amino-7-fluoro-6-(8-methyl-2,3-dihydro-1H-pyrido[2,3-b][1,4]oxazin-7-yl)isoquinolin-3-yl)carbamate] | 0.021 |  |
| Cc1c(-c2cc3cc(NC(=O)O[C@H]4C[C@@H](F)C4)ncc3c(N)c2F)cnc2c1NCCO2 [Compound 541a, (1s,3s)-3-Fluorocyclobutyl (8-amino-7-fluoro-6-(8-methyl-2,3-dihydro-1H-pyrido[2,3-b][1,4]oxazin-7-yl)isoquinolin-3-yl)carbamate hydrochloride] | 0.014 |  |
| Cc1c(-c2cc3cc(NC(=O)O[C@H]4CC[C@H]4O)ncc3c(N)c2F)cnc2c1NCCO2 [Compound 542a, (1S,2R)-2-Hydroxycyclobutyl (8-amino-7-fluoro-6-(8-methyl-2,3-dihydro-1H-pyrido[2,3-b][1,4]oxazin-7-yl)isoquinolin-3-yl)carbamate] |  | 0.33 |
| Cc1c(-c2cc3cc(NC(=O)O[C@@H]4CC[C@@H]4O)ncc3c(N)c2F)cnc2c1NCCO2 [Compound 542b, (1R,2S)-2-Hydroxycyclobutyl (8-amino-7-fluoro-6-(8-methyl-2,3-dihydro-1H-pyrido[2,3-b][1,4]oxazin-7-yl)isoquinolin-3-yl)carbamate] | 0.078 |  |
| Cc1c(-c2cc3cc(NC(=O)O[C@H]4CC[C@@H]4O)ncc3c(N)c2F)cnc2c1NCCO2 [Compound 542c, (1S,2S)-2-Hydroxycyclobutyl (8-amino-7-fluoro-6-(8-methyl-2,3-dihydro-1H-pyrido[2,3-b][1,4]oxazin-7-yl)isoquinolin-3-yl)carbamate hydrochloride] |  | 0.021 |
| Cc1c(-c2cc3cc(NC(=O)O[C@@H]4CC[C@H]4O)ncc3c(N)c2F)cnc2c1NCCO2 [Compound 542d, (1R,2R)-2-Hydroxycyclobutyl (8-amino-7-fluoro-6-(8-methyl-2,3-dihydro-1H-pyrido[2,3-b][1,4]oxazin-7-yl)isoquinolin-3-yl)carbamate hydrochloride] |  | 0.014 |
| Cc1c(-c2cc3cc(NC(=O)O[C@H]4[C@@H]5COC[C@@H]54)ncc3c(N)c2F)cnc2c1NCCO2 [Compound 543a, (1R,5S,6s)-3-oxabicyclo[3.1.0]hexan-6-yl (8-amino-7-fluoro-6-(8-methyl-2,3-dihydro-1H-pyrido[2,3-b][1,4]oxazin-7-yl)isoquinolin-3-yl)carbamate] | < 0.013 |  |
| Cc1c(-c2cc3cc(NC(=O)O[C@@H]4[C@@H]5COC[C@@H]54)ncc3c(N)c2F)cnc2c1NCCO2 [Compound 543b, (1R,5S,6r)-3-oxabicyclo[3.1.0]hexan-6-yl (8-amino-7-fluoro-6-(8-methyl-2,3-dihydro-1H-pyrido[2,3-b][1,4]oxazin-7-yl)isoquinolin-3-yl)carbamate] | 0.083 |  |
| Cc1c(-c2cc3cc(NC(=O)O[C@@H]4CCOC4)ncc3c(N)c2F)cnc2c1[C@@H](O)CC2 [Compound 548a, (R)-tetrahydrofuran-3-yl (8-amino-7-fluoro-6-((S)-5-hydroxy-4-methyl-6,7-dihydro-5H-cyclopenta[b]pyridin-3-yl)isoquinolin-3-yl)carbamate] |  | 1.7 |
